No end group written: not given here. *: point of attachment. CH2Cl = ClC*

Assay [1] relates to IL-36β activation by psoriatic skin eluates. Briefly: IL-36β activation by psoriatic skin eluates, HeLa IL-36R bioassay (IL-8 ELISA). Format: cell-based, human. The following applies: FIG. 40c, IL-36β 500 pM pre-incubated 2 h at 37° with eluates ± cathepsin G inhibitor 1 (10 μM). As for the experimental part: (§1) Fixomull (2 cm×2 cm) adhesive tape strips were applied to a healthy or psoriatic skin, under firm pressure for 10 seconds. […] Sample eluates were stored at −80° C. Enzymatic assays and bioassays were setup using control and psoriatic eluates as described above.
A general note: In an ELISA, binding on a coated surface is turned into a signal by an enzyme label.

Assay [2] concerns IL-36α activation by psoriatic skin eluates. Briefly: IL-36α activation by psoriatic skin eluates, HeLa IL-36R bioassay (IL-8 ELISA). Format: cell-based, human. The following applies: FIG. 40c, IL-36α 500 pM pre-incubated 2 h at 37° with eluates ± cathepsin G inhibitor 1 (10 μM). The procedure:
as §1

For assay [3], the system named is IL-36α activation by activated neutrophil degranulates. Briefly: IL-36α activation by PMA-activated neutrophil degranulates, HeLa IL-36R bioassay (cytokine ELISA). As to conditions: FIG. 5; IL-36α pre-incubated 2 h at 37° with degranulates ± PMSF (1 mM) or Cathepsin G inhibitor 1 (10 μM); HeLa IL36R, cytokine ELISA after 24 h. Format: cell-based, human.
Assay [4] relates to IL-36β activation by activated neutrophil degranulates. Briefly: IL-36β activation by PMA-activated neutrophil degranulates, HeLa IL-36R bioassay (cytokine ELISA). As to conditions: HeLa IL36R; for inhibition of the activation of IL-36β by activated neutrophil degranulates: FIG. 5, IL-36β pre-incubated 2 h at 37° with degranulates ± PMSF (1 mM) or Cathepsin G inhibitor 1 (10 μM), cytokine ELISA after 24 h; for inhibition of IL-36β activation by neutrophil degranulates (peptide panel): FIG. 6, 29, 30, degranulates pre-incubated 30 min on ice with peptide titration (20-0.625 μM), then IL36β 2 h at 37°, IL-6 ELISA after 24 h.
Method: FIG. 29 are graphs showing Neutrophils degranulates pre-incubated for 30 min on ice in the presence or absence of a titration of peptide (20, 10, 5, 2.5, 1.25, 0.625 μM) followed by addition of IL36β for 2 h at 37°. HeLa^IL36R were stimulated for 24 h. IL-6 cytokine concentrations in culture supernatants were determined by ELISA. Note: Elast I-IV serves as negative controls for IL-36β assay.
Primary neutrophils were purified from donor human blood using the plasma-Percoll gradient method. Purity of cell preparations (>90%) was determined by Hematoxylin and Eosin staining of cytospins. To prepare degranulates, neutrophils (10^7 per treatment) were stimulated in the presence or absence of 50 nM PMA in HBSS/0.25% BSA for 1-3 h at 37° C. in a humidified atmosphere with 5% CO2. Supernatants were harvested and clarified by centrifugation. Degranulate aliquots were stored at −80°.
Reactions (40-100 μl final volume) were carried out in protease reaction buffer (50 mM Hepes, pH 7.4/75 mM NaCl/0.1% CHAPS) for 2 h at 37°.
Cytokines and chemokines were measured from cell culture supernatants using specific ELISA kits obtained from R&D systems (human IL-6, IL-8, CXCL1, MCP-1, IL-17C). Each assay was repeated a minimum of three times and all cytokine assays were carried out using triplicate samples from each culture.

As to `CN(C(=O)c1cc2ccccc2cc1C(=O)C(c1cccc2ccccc12)P(=O)(O)O)C1CCN(C(=O)c2ccccc2)CC1` (stereo not drawn) [Cathepsin G Inhibitor I], the “attenuation of IL-36β activation by psoriatic skin eluates” value in assay [1] was “attenuated”. For the same compound, the “attenuation of IL-36α activation by psoriatic skin eluates” value in assay [2] is recorded as “attenuated”. In addition, the “inhibition of the activation of IL-36α by activated neutrophil degranulates” value in assay [3] is recorded as “robustly inhibited”. For the same compound, the “inhibition of the activation of IL-36β by activated neutrophil degranulates” value in assay [4] is given as “robustly inhibited”. `O=S(=O)(F)Cc1ccccc1` [PMSF, phenylmethanesulfonylfluoride]: in assay [3], the “inhibition of the activation of IL-36α by activated neutrophil degranulates” value was “robustly inhibited”. Also, the “inhibition of the activation of IL-36β by activated neutrophil degranulates” value in assay [4] was “robustly inhibited”. With “Ala-Phe-Leu-Phe-CMK (AFLF; not fully specified; C-terminal chloromethyl ketone; N-terminal Z; printed: Ala-Phe-Leu-Phe-) [AFLF-CMK]”, in assay [4], the “inhibition of IL-36β activation by neutrophil degranulates (peptide panel)” value (shortened to “inhibition of IL-36β activation”) is listed as “most potent inhibitors”. Take “FLF-CMK: Cathepsin G-inhibitory peptide Phe-Leu-Phe with chloromethyl ketone (CMK) at the C-terminus (Phe-Leu-Phe-CH2Cl)”: the “inhibition of IL-36β activation” value in assay [4] is reported as “most potent inhibitors”. On to “Glu-Pro-Phe-CMK (Glu-Pro-Phe-CH2Cl) [EPF-CMK]”, for which, in assay [4], the “inhibition of IL-36β activation” value is “most potent inhibitors”.
